Source: patent US20090018148A1, “Xanthine Derivatives, Processes For Preparing Them And Their Uses” (UCB PHARMA, S.A., priority 2005, published 2009)

CCOC(=O)C(CC)Sc1nc2c(c(=O)n(C)c(=O)n2C)n1Cc1ccccc1 (racemic) [Compound 1, ethyl 2-[(7-benzyl-1,3-dimethyl-2,6-dioxo-2,3,6,7-tetrahydro-1H-purin-8-yl)thio]butanoate] gave a melting point of 72 °C.
Compound CCOC(=O)C(CC)Sc1nc2c(c(=O)n(CCOC)c(=O)n2C)n1Cc1cccc(Br)c1 (racemic) [Compound 3, ethyl 2-{[7-(3-bromobenzyl)-1-(2-methoxyethyl)-3-methyl-2,6-dioxo-2,3,6,7-tetrahydro-1H-purin-8-yl]thio}butanoate] has a melting point of 58 °C.
CCOC(=O)C(CC)Sc1nc2[nH]c(=O)[nH]c(=O)c2n1Cc1cccc(Br)c1 (racemic) [Compound 4, ethyl 2-{[7-(3-bromobenzyl)-2,6-dioxo-2,3,6,7-tetrahydro-1H-purin-8-yl]thio}butanoate] gave a melting point of 90.1 °C.
In the case of CCOC(=O)C(CC)Sc1nc2c(c(=O)n(C)c(=O)n2C)n1Cc1cccc(Br)c1 (racemic) [Compound 5, ethyl 2-{[7-(3-bromobenzyl)-1,3-dimethyl-2,6-dioxo-2,3,6,7-tetrahydro-1H-purin-8-yl]thio}butanoate], the melting point is reported as 76 °C.
With CCOC(=O)C(CC)Sc1nc2c(c(=O)n(C)c(=O)n2C)n1Cc1ccccc1Br (racemic) [Compound 6, ethyl 2-{[7-(2-bromobenzyl)-1,3-dimethyl-2,6-dioxo-2,3,6,7-tetrahydro-1H-purin-8-yl]thio}butanoate] the melting point was 101 °C.
In the case of CCOC(=O)C(CC)Sc1nc2c(c(=O)n(CC#N)c(=O)n2C)n1Cc1cccc(Br)c1 (racemic) [Compound 7, ethyl 2-{[7-(3-bromobenzyl)-1-(cyanomethyl)-3-methyl-2,6-dioxo-2,3,6,7-tetrahydro-1H-purin-8-yl]thio}butanoate], the melting point is reported as 84 °C.
C#CCn1c(=O)c2c(nc(SC(CC)C(=O)OCC)n2Cc2cccc(Br)c2)n(C)c1=O (racemic) [Compound 11, ethyl 2-{[7-(3-bromobenzyl)-3-methyl-2,6-dioxo-1-(2-propynyl)-2,3,6,7-tetrahydro-1H-purin-8-yl]thio}butanoate] gave a melting point of 97 °C.
CCOC(=O)C(CC)Sc1nc2c(c(=O)[nH]c(=O)n2C)n1Cc1cccc(OC)c1 (racemic) [Compound 12, ethyl 2-{[7-(3-methoxybenzyl)-3-methyl-2,6-dioxo-2,3,6,7-tetrahydro-1H-purin-8-yl]thio}butanoate] showed a melting point of 115 °C.
In the case of CCOC(=O)C(CC)Sc1nc2c(c(=O)[nH]c(=O)n2C)n1Cc1cccc([N+](=O)[O-])c1 (racemic) [Compound 13, ethyl 2-{[3-methyl-7-(3-nitrobenzyl)-2,6-dioxo-2,3,6,7-tetrahydro-1H-purin-8-yl]thio}butanoate], the melting point is reported as 147 °C.
Work on CCOC(=O)C(CC)Sc1nc2c(c(=O)[nH]c(=O)n2C)n1Cc1cccc(N)c1 (racemic) [Compound 14, ethyl 2-{[7-(3-aminobenzyl)-3-methyl-2,6-dioxo-2,3,6,7-tetrahydro-1H-purin-8-yl]thio}butanoate] yielded a melting point of 107 °C.
CCOC(=O)C(CC)Sc1nc2c(c(=O)[nH]c(=O)n2C)n1Cc1ccc(S(N)(=O)=O)cc1 (racemic) [Compound 15, ethyl 2-({7-[4-(aminosulfonyl)benzyl]-3-methyl-2,6-dioxo-2,3,6,7-tetrahydro-1H-purin-8-yl}thio)butanoate] gave a melting point of 175.2 °C.
Compound CCOC(=O)C(CC)Sc1nc2c(c(=O)[nH]c(=O)n2C)n1Cc1c(C)noc1C (racemic) [Compound 20, ethyl 2-({7-[(3,5-dimethylisoxazol-4-yl)methyl]-3-methyl-2,6-dioxo-2,3,6,7-tetrahydro-1H-purin-8-yl}thio)butanoate] has a melting point of 208 °C.
In the case of CCOC(=O)C(CC)Sc1nc2c(c(=O)[nH]c(=O)n2C)n1Cc1ccc([N+](=O)[O-])o1 (racemic) [Compound 21, ethyl 2-({3-methyl-7-[(5-nitro-2-furyl)methyl]-2,6-dioxo-2,3,6,7-tetrahydro-1H-purin-8-yl}thio)butanoate], the melting point is reported as 172 °C.
CCCCn1c(SC(CC)C(=O)OCC)nc2c1c(=O)[nH]c(=O)n2C (racemic) [Compound 22, ethyl 2-[(7-butyl-3-methyl-2,6-dioxo-2,3,6,7-tetrahydro-1H-purin-8-yl)thio]butanoate] showed a melting point of 104 °C.
Compound CCCCCCn1c(SC(CC)C(=O)OCC)nc2c1c(=O)[nH]c(=O)n2C (racemic) [Compound 25, ethyl 2-[(7-hexyl-3-methyl-2,6-dioxo-2,3,6,7-tetrahydro-1H-purin-8-yl)thio]butanoate] has a melting point of 87 °C.
For CCC(Sc1nc2c(c(=O)[nH]c(=O)n2C)n1Cc1cccc(Br)c1)C(N)=O (racemic) [Compound 27, 2-{[7-(3-bromobenzyl)-3-methyl-2,6-dioxo-2,3,6,7-tetrahydro-1H-purin-8-yl]thio}butanamide], the melting point was 244.15 °C.
CCCCn1c(SC(CC)C(N)=O)nc2c1c(=O)[nH]c(=O)n2C (racemic) [Compound 28, 2-[(7-butyl-3-methyl-2,6-dioxo-2,3,6,7-tetrahydro-1H-purin-8-yl)thio]butanamide] showed a melting point of 253 °C.
Compound CCOC(=O)C(CC)Sc1nc2c(c(=O)[nH]c(=O)n2C)n1CC(C)C (racemic) [Compound 31, ethyl 2-[(7-isobutyl-3-methyl-2,6-dioxo-2,3,6,7-tetrahydro-1H-purin-8-yl)thio]butanoate] has a melting point of 132 °C.
In the case of CCC(CC)Sc1nc2c(c(=O)[nH]c(=O)n2C)n1Cc1cccc(Br)c1 [Compound 29, 7-(3-bromobenzyl)-8-[(1-ethylpropyl)thio]-3-methyl-3,7-dihydro-1H-purine-2,6-dione], the melting point is reported as 167 °C.
